The subject of data set [1] is classical pathway of complement. Nature of the data set: ELISA inhibition of classical pathway complement activation. Format: biochemical. The note with it: read-out: IC50, peptide concentration to reach 50% inhibition of classical pathway complement activation; Table 1. The protocol:
Inhibition of complement activation. The ability of the compstatin analogs to inhibit the activation of the classical pathway of complement was assessed by ELISA as described elsewhere (Katragadda et al., 2006, supra; Mallik et al., 2005, supra). The percent inhibition was plotted against the peptide concentration, and the resulting data set was fitted to the logistic dose-response function using Origin 8.0 software. IC50 values were obtained from the fitted parameters that produced the lowest χ2 value. Each analog was assayed at least three times.
For orientation: In an ELISA, binding on a coated surface is turned into a signal by an enzyme label.

Data set [2] in a line: Solubility in WFI and DPBS; UPLC C18 retention time as hydrophobicity. The conditions noted are these: for solubility at 5 min: pH 7.4; for Hydrophobicity Retention Time: UPLC analysis on a C18 column.
Protocol: Approximately 5 mg of each peptide (acetate form) was weighed out into separate LoBind Eppendorf tubes and 50 μL water for injection (WFI) was added to each tube. Each sample was centrifuged at 13000 rpm for 2 min and diluted for measuring the optical density (OD) at 280 nm using a NanoDrop 2000 spectrophotometer (ThermoScientific, Wilmington, Del.). Each concentrated sample was diluted 1:20 into Dulbecco's phosphate buffered saline (DPBS, without potassium and calcium; Invitrogen, Carlsbad, Calif.). The samples were monitored for precipitation, and each sample was vortexed for 5 min and centrifuged at 13000 rpm for 2 min. The OD of each DPBS supernatant was measured to determine peptide concentration at saturation.
In addition, the ultra performance liquid chromatography (UPLC) retention time of these peptides on a C18 column was measured to reflect their apparent relative hydrophobicity (Table 3).
Data set [3] deals with T1, C3b (Homo sapiens, UniProt P01024).
T1 construct: Biotinylated C3b was captured site-specifically on a streptavidin chip
The note with it: value from previous publication (WO2010/127336), cited from earlier work.

Data set [4] addresses T1, C3b. The data set can be described thus: SPR kinetic analysis of binding to immobilized C3b (Biacore, single cycle kinetics). The note with it: for ka: association rate / Kd / koff: Table 1, N-terminal analogs; for Kd: read-out: KD: binding constant from SPR; for koff: read-out: kd: dissociation rate. On the procedure:
SPR analysis. The interaction of the compstatin analogs with C3b was characterized using a Biacore 3000 instrument (GE Healthcare, Corp., Piscataway, N.J.). The running buffer was PBS, pH 7.4 (10 mM sodium phosphate, 150 mM NaCl) with 0.005% Tween-20. Biotinylated C3b was captured site-specifically on a streptavidin chip at about 3000 and 5000 RU density; two untreated flow cells were used as reference surface. For kinetic analysis, sets of five increasing concentrations of a particular compound were injected over the chip surface one after the other in a single cycle. […] Processed biosensor data were globally fitted to a 1:1 Langmuir binding model (kindly provided by GE Helthcare), and the equilibrium dissociation constant (KD) was calculated from the equation KD=kd/ka. Each assay was performed at least twice.
(In general: In SPR one partner is held on a chip, and binding of the other changes the refractive index at the surface.)

The mark [5] stands for this setting: Dulbecco's phosphate buffered saline.

Each structure is given as a SMILES string. Converted amounts (≈) assume the structure as drawn. Read-outs that look alike come from different tables or passages of the source. Bridge positions count the residues as written; N and C are the ends. Square brackets hold non-standard residues; d marks the D form. Peptide text beside a SMILES is read from it. Trp(1-Me) = Cn1cc(C[C@H](N)C(=O)O)c2ccccc21; NMeI = CC[C@H](C)[C@H](NC)C(=O)O; Sar = CNCC(=O)O

T1 sequence (P01024 23-667 limits assumed): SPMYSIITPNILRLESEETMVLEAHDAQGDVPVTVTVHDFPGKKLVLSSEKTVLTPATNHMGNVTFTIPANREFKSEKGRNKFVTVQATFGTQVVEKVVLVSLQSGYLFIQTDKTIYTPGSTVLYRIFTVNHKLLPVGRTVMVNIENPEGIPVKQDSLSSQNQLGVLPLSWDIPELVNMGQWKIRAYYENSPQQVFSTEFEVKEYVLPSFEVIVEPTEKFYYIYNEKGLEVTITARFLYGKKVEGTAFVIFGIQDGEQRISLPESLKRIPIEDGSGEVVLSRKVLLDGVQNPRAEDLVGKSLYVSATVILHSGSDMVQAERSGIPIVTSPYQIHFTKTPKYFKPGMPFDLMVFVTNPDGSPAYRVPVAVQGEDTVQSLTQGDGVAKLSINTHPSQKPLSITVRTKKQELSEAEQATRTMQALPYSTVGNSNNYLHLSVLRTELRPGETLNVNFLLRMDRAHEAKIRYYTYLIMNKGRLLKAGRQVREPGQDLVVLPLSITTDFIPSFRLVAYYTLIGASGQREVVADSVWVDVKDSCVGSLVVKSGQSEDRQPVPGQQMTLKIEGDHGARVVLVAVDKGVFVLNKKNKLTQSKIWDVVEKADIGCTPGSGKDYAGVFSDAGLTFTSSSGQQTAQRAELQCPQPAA
T1 sequence (P01024 749-1663 partner limits assumed): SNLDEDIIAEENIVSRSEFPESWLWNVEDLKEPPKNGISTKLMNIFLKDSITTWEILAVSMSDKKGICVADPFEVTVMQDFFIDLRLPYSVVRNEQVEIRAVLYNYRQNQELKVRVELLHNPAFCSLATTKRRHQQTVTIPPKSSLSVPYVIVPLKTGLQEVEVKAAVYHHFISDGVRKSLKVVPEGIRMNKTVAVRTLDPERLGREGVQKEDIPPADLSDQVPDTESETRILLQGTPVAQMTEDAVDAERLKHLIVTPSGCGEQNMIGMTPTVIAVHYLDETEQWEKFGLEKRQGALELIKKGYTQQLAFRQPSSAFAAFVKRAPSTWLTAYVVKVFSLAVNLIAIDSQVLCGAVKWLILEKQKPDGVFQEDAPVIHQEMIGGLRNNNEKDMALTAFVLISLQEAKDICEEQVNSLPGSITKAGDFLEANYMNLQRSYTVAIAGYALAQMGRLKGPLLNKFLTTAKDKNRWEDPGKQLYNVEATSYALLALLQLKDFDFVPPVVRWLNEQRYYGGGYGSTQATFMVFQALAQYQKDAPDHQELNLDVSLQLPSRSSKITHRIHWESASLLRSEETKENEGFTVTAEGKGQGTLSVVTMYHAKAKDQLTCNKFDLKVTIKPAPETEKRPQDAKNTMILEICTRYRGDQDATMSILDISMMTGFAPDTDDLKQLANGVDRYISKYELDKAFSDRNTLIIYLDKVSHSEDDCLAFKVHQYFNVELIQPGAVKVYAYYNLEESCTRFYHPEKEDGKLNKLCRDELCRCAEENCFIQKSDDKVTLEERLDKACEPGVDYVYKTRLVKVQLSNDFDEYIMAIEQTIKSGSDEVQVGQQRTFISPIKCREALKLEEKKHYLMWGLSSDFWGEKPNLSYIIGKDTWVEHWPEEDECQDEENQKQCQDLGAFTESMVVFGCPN

As for `CC[C@H](C)[C@H](NC(C)=O)C(=O)N[C@H]1CSSC[C@@H](C(=O)N[C@H](C(N)=O)[C@@H](C)O)NC(=O)[C@H](CCCNC(=N)N)NC(=O)[C@H](Cc2c[nH]cn2)NC(=O)[C@H](C)NC(=O)CNC(=O)[C@H](Cc2c[nH]c3ccccc23)NC(=O)[C@H](CC(=O)O)NC(=O)[C@H](CCC(N)=O)NC(=O)[C@H](Cc2cn(C)c3ccccc23)NC(=O)[C@H](C(C)C)NC1=O` [4(1MeW), reference compound], the IC50 in data set [1] amounted to 132 ± 7 nM. Moreover, in data set [2] (setting [5]), the solubility – broadly, how much of the substance goes into solution per volume – at 5 min came to 3500 µg/mL (≈ 2150 µM). In addition, the “Hydrophobicity Retention Time” value in data set [2] is 5.09 min.

Consider `CC[C@H](C)[C@H](NC(C)=O)C(=O)N[C@H]1CSSC[C@@H](C(=O)N(C)[C@H](C(N)=O)[C@@H](C)CC)NC(=O)[C@H](CCCNC(=N)N)NC(=O)[C@H](Cc2c[nH]cn2)NC(=O)[C@H](C)NC(=O)CN(C)C(=O)[C@H](Cc2c[nH]c3ccccc23)NC(=O)[C@H](CC(=O)O)NC(=O)[C@H](CCC(N)=O)NC(=O)[C@H](Cc2cn(C)c3ccccc23)NC(=O)[C@H](C(C)C)NC1=O` [Cp20, reference compound], for which, on C3b [3], the “ka: association rate” value is reported as 1.9 10^6/Ms and the “kd: dissociation rate” value is on record as 4.0 10^−3/s. Moreover, the Kd (as a rule, the constant that tells how readily two partners part at equilibrium) at C3b [3] (read-out: KD: binding constant from SPR) is 2.4 nM. For the same molecule, in data set [2] (Dulbecco's phosphate buffered saline (DPBS)), the solubility at 5 min came to 2700 µg/mL (≈ 1620 µM). Moreover, the “Hydrophobicity Retention Time” value in data set [2] amounted to 5.33 min. For the same molecule, the “Solubility WFI” value in data set [2] (water for injection, OD (280 nm) at saturation, acetate form) was determined as 13000 µg/mL (≈ 7790 µM).

Regarding `CC[C@H](C)[C@H](NC(=O)[C@H](C)NC)C(=O)N[C@H]1CSSC[C@@H](C(=O)N(C)[C@H](C(N)=O)[C@@H](C)CC)NC(=O)[C@H](CCCNC(=N)N)NC(=O)[C@H](Cc2c[nH]cn2)NC(=O)[C@H](C)NC(=O)CN(C)C(=O)[C@H](Cc2c[nH]c3ccccc23)NC(=O)[C@H](CC(=O)O)NC(=O)[C@H](CCC(N)=O)NC(=O)[C@H](Cc2cn(C)c3ccccc23)NC(=O)[C@H](C(C)C)NC1=O` [compound 13], at C3b [4], the “ka: association rate” value is 1.4 ± 0.2 10^6/Ms, the Kd was found to be 2.5 ± 0.6 nM and the koff stood at 0.0034 ± 0.0003 s⁻¹.

Take `CC[C@H](C)[C@H](NC(=O)[C@H](N)Cc1ccccc1)C(=O)N[C@H]1CSSC[C@@H](C(=O)N(C)[C@H](C(N)=O)[C@@H](C)CC)NC(=O)[C@H](CCCNC(=N)N)NC(=O)[C@H](Cc2c[nH]cn2)NC(=O)[C@H](C)NC(=O)CN(C)C(=O)[C@H](Cc2c[nH]c3ccccc23)NC(=O)[C@H](CC(=O)O)NC(=O)[C@H](CCC(N)=O)NC(=O)[C@H](Cc2cn(C)c3ccccc23)NC(=O)[C@H](C(C)C)NC1=O` [compound 15]: on C3b [4], the “ka: association rate” value is on record as 2.3 ± 0.3 10^6/Ms, the dissociation constant Kd was found to be 1.1 ± 0.1 nM and the koff is 0.0026 s⁻¹.

For `CC[C@H](C)[C@H](NC(=O)[C@H](N)Cc1c[nH]c2ccccc12)C(=O)N[C@H]1CSSC[C@@H](C(=O)N(C)[C@H](C(N)=O)[C@@H](C)CC)NC(=O)[C@H](CCCNC(=N)N)NC(=O)[C@H](Cc2c[nH]cn2)NC(=O)[C@H](C)NC(=O)CN(C)C(=O)[C@H](Cc2c[nH]c3ccccc23)NC(=O)[C@H](CC(=O)O)NC(=O)[C@H](CCC(N)=O)NC(=O)[C@H](Cc2cn(C)c3ccccc23)NC(=O)[C@H](C(C)C)NC1=O` [compound 16], the “ka: association rate” value on C3b [4] was 2.0 ± 0.2 10^6/Ms.

Consider `CC[C@H](C)[C@H](NC(=O)[C@H](N)CC1CCCCC1)C(=O)N[C@H]1CSSC[C@@H](C(=O)N(C)[C@H](C(N)=O)[C@@H](C)CC)NC(=O)[C@H](CCCNC(=N)N)NC(=O)[C@H](Cc2c[nH]cn2)NC(=O)[C@H](C)NC(=O)CN(C)C(=O)[C@H](Cc2c[nH]c3ccccc23)NC(=O)[C@H](CC(=O)O)NC(=O)[C@H](CCC(N)=O)NC(=O)[C@H](Cc2cn(C)c3ccccc23)NC(=O)[C@H](C(C)C)NC1=O` [compound 17], for which, at C3b [4], the “ka: association rate” value was 1.8 ± 0.5 10^6/Ms, the Kd is 1.5 ± 0.2 nM and the koff is 0.0027 ± 0.0004 s⁻¹.

Turning to `CC[C@H](C)[C@H](NC(=O)[C@@H](C)N)C(=O)N[C@H]1CSSC[C@@H](C(=O)N(C)[C@H](C(N)=O)[C@@H](C)CC)NC(=O)[C@H](CCCNC(=N)N)NC(=O)[C@H](Cc2c[nH]cn2)NC(=O)[C@H](C)NC(=O)CN(C)C(=O)[C@H](Cc2c[nH]c3ccccc23)NC(=O)[C@H](CC(=O)O)NC(=O)[C@H](CCC(N)=O)NC(=O)[C@H](Cc2cn(C)c3ccccc23)NC(=O)[C@H](C(C)C)NC1=O` [compound 18], at C3b [4], the “ka: association rate” value is recorded as 1.4 ± 0.3 10^6/Ms, the dissociation constant Kd worked out at 2.5 ± 0.4 nM and the koff came out at 0.0034 ± 0.0004 s⁻¹.

As for `CC[C@H](C)[C@H](NC)C(=O)N[C@H]1CSSC[C@@H](C(=O)N(C)[C@H](C(N)=O)[C@@H](C)CC)NC(=O)[C@H](CCCNC(=N)N)NC(=O)[C@H](Cc2c[nH]cn2)NC(=O)[C@H](C)NC(=O)CN(C)C(=O)[C@H](Cc2c[nH]c3ccccc23)NC(=O)[C@H](CC(=O)O)NC(=O)[C@H](CCC(N)=O)NC(=O)[C@H](Cc2cn(C)c3ccccc23)NC(=O)[C@H](C(C)C)NC1=O` [peptide 1], at C3b [4], the “ka: association rate” value was 1.3 ± 0.3 10^6/Ms, the Kd came to 18.6 ± 3.5 nM and the koff came out at 0.0248 ± 0.0073 s⁻¹. In addition, at C3b [4] (compared with Cp40 (peptide 14)), the “Binding affinity by SPR, in words” value is recorded as “high binding affinity”. In data set [1], the IC50 turned out to be 180 ± 17 nM.

In the case of `CC[C@H](C)[C@H](NC(=O)CN)C(=O)N[C@H]1CSSC[C@@H](C(=O)N(C)[C@H](C(N)=O)[C@@H](C)CC)NC(=O)[C@H](CCCNC(=N)N)NC(=O)[C@H](Cc2c[nH]cn2)NC(=O)[C@H](C)NC(=O)CN(C)C(=O)[C@H](Cc2c[nH]c3ccccc23)NC(=O)[C@H](CC(=O)O)NC(=O)[C@H](CCC(N)=O)NC(=O)[C@H](Cc2cn(C)c3ccccc23)NC(=O)[C@H](C(C)C)NC1=O` [peptide 2] (H-GICV[Trp(1-Me)]QDW[Sar]AHRC[NMeI]-NH2; disulfide 3-13), at C3b [4], the “ka: association rate” value is 1.2 ± 0.3 10^6/Ms, the Kd came out at 2.5 ± 0.5 nM and the koff was 0.0029 ± 0.0002 s⁻¹. Moreover, the IC50 in data set [1] was 113 ± 16 nM.

For the molecule `CC[C@H](C)[C@H](NC(=O)[C@@H](N)Cc1ccc(O)cc1)C(=O)N[C@H]1CSSC[C@@H](C(=O)N(C)[C@H](C(N)=O)[C@@H](C)CC)NC(=O)[C@H](CCCNC(=N)N)NC(=O)[C@H](Cc2c[nH]cn2)NC(=O)[C@H](C)NC(=O)CN(C)C(=O)[C@H](Cc2c[nH]c3ccccc23)NC(=O)[C@H](CC(=O)O)NC(=O)[C@H](CCC(N)=O)NC(=O)[C@H](Cc2cn(C)c3ccccc23)NC(=O)[C@H](C(C)C)NC1=O` [peptide 4], the “ka: association rate” value at C3b [4] is given as 2.1 ± 0.3 10^6/Ms. Moreover, in data set [1], the IC50 amounted to 72 ± 10 nM.

For the molecule `CC[C@H](C)[C@@H](C(N)=O)N(C)C(=O)[C@@H]1CSSC[C@H](NC(=O)[C@H](Cc2c[nH]c3ccccc23)NC(C)=O)C(=O)N[C@@H](C(C)C)C(=O)N[C@@H](Cc2cn(C)c3ccccc23)C(=O)N[C@@H](CCC(N)=O)C(=O)N[C@@H](CC(=O)O)C(=O)N[C@@H](Cc2c[nH]c3ccccc23)C(=O)N(C)CC(=O)N[C@@H](C)C(=O)N[C@@H](Cc2c[nH]cn2)C(=O)N[C@@H](CCCNC(=N)N)C(=O)N1` [peptide 19] (Ac-WCV[Trp(1-Me)]QDW[Sar]AHRC[NMeI]-NH2; disulfide 2-12), on C3b [4], the “ka: association rate” value is reported as 3.8 ± 0.3 10^6/Ms, the dissociation constant Kd was 0.5 nM and the koff came to 0.0017 ± 0.0003 s⁻¹. Besides, the solubility at 5 min in data set [2] (setting [5]) is less than 200 µg/mL. The molecule further gave a solubility in data set [2] (PBS) of less than 100 µM.

For the molecule `CC[C@H](C)[C@@H](C(N)=O)N(C)C(=O)[C@@H]1CSSC[C@H](NC(=O)CNC(=O)[C@@H](N)Cc2ccc(O)cc2)C(=O)N[C@@H](C(C)C)C(=O)N[C@@H](Cc2cn(C)c3ccccc23)C(=O)N[C@@H](CCC(N)=O)C(=O)N[C@@H](CC(=O)O)C(=O)N[C@@H](Cc2c[nH]c3ccccc23)C(=O)N(C)CC(=O)N[C@@H](C)C(=O)N[C@@H](Cc2c[nH]cn2)C(=O)N[C@@H](CCCNC(=N)N)C(=O)N1` [peptide 20] (H-YGCV[Trp(1-Me)]QDW[Sar]AHRC[NMeI]-NH2; disulfide 3-13), on C3b [4], the “ka: association rate” value was 2.1 ± 0.3 10^6/Ms, the equilibrium dissociation constant (Kd) turned out to be 3.5 ± 0.3 nM and the koff turned out to be 0.0073 ± 0.0014 s⁻¹.
